US20110229534A1, “Non-Irritating Oral Care Formulations” (The Trustees of Columbia University In The City Of New York, priority 2006, published 2011)
Read-outs that look alike come from different tables or passages of the source.

Columns and labels:
[1] = oral rinse containing ketorolac; small number of patients; cited from earlier work
GCF-IL-1 beta = details: used as an oral rinse; cited from earlier work
[2] = oral administration; cited from earlier work
[3] = cited from earlier work
Streptococcus mutants = details: for Growth: CFU/ml: subcultured on TSA, 24 hours
Experimental: A culture of Streptococcus mutants (causative bacteria for dental plaque) was grown in brain/heart infusion (BHI). Tubes containing 5 ml of BHI were inoculated with 0.1 ml of 10^5 CFU bacteria/ml and incubated anaerobically at 37° C. After 24 hours the turbidity was measured; the tubes were subcultured on TSA and incubated for 24 hours and colony counts were measured.

O=C(c1ccccc1)c1ccc2n1CCC2C(=O)O (stereo not shown) [ketorolac]
oral mucosal side effect [1]: ulceration in the oral mucosa was observed
effect on GCF-IL-1 beta in the oral cavity (GCF-IL-1 beta): reduce GCF-IL-1 beta
gastric mucosal side effect [2]: gastric mucosal ulceration

zinc picolinate
water solubility (in words) [3]: moderately water soluble

zinc glycerate
water solubility (in words) [3]: moderately water soluble

Zinc salicylate
anti-Streptococcus activity (conclusion) (Streptococcus mutants): exhibit anti-Streptococcus activity
Growth: CFU/ml (Streptococcus mutants; 25 ug/ml): >10^8 CFU/ml
Growth: CFU/ml (Streptococcus mutants; 50 ug/ml): >10^6 CFU/ml
Growth: CFU/ml (Streptococcus mutants; 100 ug/ml): 10 CFU/ml
Growth: CFU/ml (Streptococcus mutants; 200 ug/ml): 0 CFU/ml
